Reference: ChEMBL document CHEMBL5149962, “Targeting KRAS mutant cancers by preventing signaling transduction in the MAPK pathway” (Eur J Med Chem, 2021)
Each block holds one compound with its values, some of them ahead of it.

Key:
[1] = Competitive binding of mammalian GGTase-1 expressed in Sf9 cells assessed as inhibition of 3H-GGPP binding to RAS using Ras-CVLL as substrate incubated for 10 mins; parameters: species or system Mammalia
[2] = Inhibition of mammalian GGTase-1 expressed in Sf9 cells using wildtype His-tagged RAS-CVLL as substrate assessed as inhibition of substrate plasma membrane localisation; type: cell membranes, Mammalia
[3] = Binding affinity to human FPTase assessed as inhibition constant
NIH3T3 [4] = assay: Antitumor activity against mouse NIH3T3 cells transfected with KRAS4B xenografted nude mouse assessed as inhibition of tumor growth at 35 mg/kg, ip administered in the presence of FTI-276 relative to control; type: functional; parameters: scale not given: the % may be the effect or the level left
NIH3T3 [5] = assay: Antitumor activity against mouse NIH3T3 cells transfected with H-Ras CVLS xenografted nude mouse assessed as inhibition of tumor growth at 70 mg/kg, ip administered once daily relative to control; type: functional; parameters: scale not given: the % may be the effect or the level left
Calu-1 = assay: Antitumor activity against human Calu-1 cells transfected with KRAS mutant xenografted nude mouse assessed as inhibition of tumor growth at 70 mg/kg, ip administrated once daily measure for 40 to 80 days relative to control; type: functional; parameters: scale not given: the % may be the effect or the level left; conditions: time 40-80 day
[6] = molecular target: Protein farnesyltransferase subunit beta (Homo sapiens, UniProt P49356); assay: Displacement of M [3H] farnesyl diphosphate from human PFTase expressed in Escherichia coli
[7] = Inhibition of GDP-tagged human RAS (1 to 166 residue) incubated for 20 mins by using Centricon-10 micro concentrators analysis
[8] = Inhibition of HRAS […] mutant (unknown origin) expressed in mouse NIH3T3 cells assessed as inhibition of post-translational modification processing; type: cell-based, Homo sapiens
GTPase KRas = GTPase KRas (Homo sapiens, UniProt P01116, G12V); assay: Inhibition of KRAS G12V mutant (unknown origin) expressed in mouse NIH3T3 cells assessed as inhibition of post-translational modification processing; type: cell-based
MDA-MB-231 [9] = assay: Cytotoxicity against human MDA-MB-231 cells harboring KRAS G13D mutant assessed as reduction in cell viability measured after 48 hrs by MTT assay; type: functional, cell-based; conditions: MDA-MB-231, 48 h
MIA PaCa-2 = assay: Cytotoxicity against human MIA PaCa-2 cells harboring KRAS G12C mutant assessed as reduction in cell viability measured after 48 hrs by MTT assay; type: functional, cell-based; conditions: MIA PaCa-2, 48 h
PANC-1 = assay: Cytotoxicity against human PANC-1 cells harboring KRAS G12D mutant assessed as reduction in cell viability measured after 48 hrs by MTT assay; type: functional, cell-based; conditions: PANC-1, 48 h
NCI-H460 = assay: Cytotoxicity against human NCI-H460 cells harboring KRAS […] mutant assessed as reduction in cell viability measured after 48 hrs by MTT assay; type: functional, cell-based; conditions: NCI-H460, 48 h
HCT-116 [10] = assay: Cytotoxicity against human HCT-116 cells harboring KRAS G13D mutant assessed as reduction in cell viability measured after 48 hrs by MTT assay; type: functional, cell-based; conditions: HCT-116, 48 h
SW-620 = assay: Cytotoxicity against human SW-620 cells harboring KRAS G12V mutant assessed as reduction in cell viability measured after 48 hrs by MTT assay; type: functional
HT-1080 = assay: Antitumor activity against human HT-1080 cells xenografted in BALB/c nude mouse assessed as reduction in tumor size at 100 mg/kg measured twice a week for 21 days relative to control; type: functional; parameters: scale not given: the % may be the effect or the level left; conditions: time 21 day
HCT-116 [11] = assay: Antitumor activity against human HCT-116 cells xenografted in BALB/c nude mouse assessed as reduction in tumor size at 100 mg/kg measured twice a week for 21 days relative to control; type: functional; parameters: scale not given: the % may be the effect or the level left; conditions: time 21 day
NCI-H929 = assay: Induction of apoptosis in human NCI-H929 cells harboring NRAS mutant assessed as reduction in cell viability measured after 48 hrs by Annexin V-FITC staining based flow cytometry analysis; type: functional
[12] = Induction of apoptosis in human U266B cells harboring wild type RAS mutant assessed as reduction in cell viability measured after 48 hrs by Annexin V-FITC staining based flow cytometry analysis; type: functional
RPMI-8226 = assay: Induction of apoptosis in human RPMI-8226 cells harboring KRAS mutant assessed as reduction in cell viability measured after 48 hrs by Annexin V-FITC staining based flow cytometry analysis; type: functional; conditions: RPMI-8226, 48 h
MCF-10A = assay: Antiproliferative activity against human MCF-10A cells harboring HRAS mutant incubated for 48 hrs by MTT assay; type: functional, cell-based
[13] = Antiproliferative activity against human Hs578Bst cells harboring HRAS mutant incubated for 48 hrs by MTT assay; type: functional, cell-based
MDA-MB-231 [14] = assay: Antiproliferative activity against human MDA-MB-231 cells harboring HRAS mutant incubated for 48 hrs by MTT assay; type: functional, cell-based; conditions: MDA-MB-231, 48 h
HT-29 [15] = assay: Cytotoxicity against human HT-29 cells assessed as cell growth inhibition after 72 hrs by MTT assay; type: functional, cell-based; conditions: HT-29, 72 h
GTPase NRas = GTPase NRas (Homo sapiens, UniProt P01111); assay: Binding affinity to NRAS (unknown origin) assessed as inhibition constant
GTPase HRas = GTPase HRas (Homo sapiens, UniProt P01112); assay: Binding affinity to HRAS (unknown origin) assessed as inhibition constant
[16] = Antiproliferative activity against human cancer cell lines harboring KRAS mutation assessed as reduction in cell viability; type: functional, cell-based
[17] = Antiproliferative activity against human cancer cell lines harboring wild type RAS mutation assessed as reduction in cell viability; type: functional, cell-based
A549 [18] = assay: Cytotoxicity against human A549 cells assessed as cell growth inhibition after 72 hrs by MTT assay; type: functional, cell-based; conditions: A549, 72 h
A549 [19] = assay: Cytotoxicity against human A549 cells assessed as cell growth inhibition after 72 hrs in presence of doxorubicin by MTT assay; type: functional, cell-based; conditions: A549, 72 h
HT-29 [20] = assay: Cytotoxicity against human HT-29 cells assessed as cell growth inhibition after 72 hrs in presence of doxorubicin by MTT assay; type: functional, cell-based; conditions: HT-29, 72 h
[21] = AUC in cynomolgus monkey; type: ADME, Macaca fascicularis; conditions: in vivo
[22] = Cmax in cynomolgus monkey; type: ADME, Macaca fascicularis; conditions: in vivo
Rat1 = assay: Inhibition of cell growth in rat Rat1 cells transfected with HRAS; type: functional, cell-based
HT-29 [23] = assay: Antiproliferative activity against human HT-29 cells assessed as reduction in cell growth at 100 uM measured after 7 days relative to control; type: functional; parameters: scale not given: the % may be the effect or the level left; conditions: time 7 day
[24] = Toxicity in nude mouse xenografted with human PANC-1 cells assessed as reduction in body weight at 40 mg/kg, po administered daily for 10 days relative to control; type: organism-based; parameters: scale not given: the % may be the effect or the level left; conditions: in vivo, 240 h, time 10 day
[25] = Reduction in KRAS mutant level in tumor of human PANC-1 cells xenografted nude mouse at 40 mg/kg, po administered daily for 10 days by immunoblot analysis relative to control; type: functional; parameters: scale not given: the % may be the effect or the level left; conditions: time 10 day
[26] = Reduction in KRAS-GTP mutant level in tumor of human PANC-1 cells xenografted nude mouse at 40 mg/kg, po administered daily for 10 days by immunoblot analysis relative to control; type: functional; parameters: scale not given: the % may be the effect or the level left; conditions: time 10 day
[27] = Reduction in phosphor-ERK mutant level in tumor of human PANC-1 cells xenografted nude mouse at 40 mg/kg, po administered daily for 10 days by immunoblot analysis relative to control; type: functional; parameters: scale not given: the % may be the effect or the level left; conditions: time 10 day
A549 [28] = assay: Antitumor activity against human A549 cells xenografted in athymic nude mouse assessed as reduction in tumour volume at 10 mg/kg, ip administered once daily measured after 24 days relative to control; type: functional; parameters: scale not given: the % may be the effect or the level left; conditions: time 24 day
SK-MES-1 = assay: Antitumor activity against human SK-MES-1 HTB-58 cells xenografted in athymic nude mouse assessed as reduction in tumour volume at 10 mg/kg, ip administered once daily measured after 24 days; type: functional; conditions: time 24 day
A549 [29] = assay: Antitumor activity against human A549 cells xenografted in athymic nude mice assessed as inhibition of tumor growth at 50 mg/kg, po administered daily measured after 16 days relative to control; type: functional; parameters: scale not given: the % may be the effect or the level left; conditions: time 16 day
[30] = Inhibition of human FPTase using K-RasB peptide as a substrate assessed as inhibition of substrate farnesylation
[31] = Competitive inhibition of human FPTase using K-RasB peptide as a substrate assessed as inhibition constant by Scintillation proximity assay
HT1197 = assay: Antiproliferative activity against human HT1197 cells harboring HRAS 61 mutation assessed as inhibition of cell growth incubated for 4 to 7 days; type: functional, cell-based
SU.86.86 = assay: Antiproliferative activity against human SU-86-86 cells harboring KRAS 12 mutation assessed as inhibition of cell growth incubated for 4 to 7 days; type: functional, cell-based
Capan-2 = assay: Antiproliferative activity against human Capan-2 cells harboring KRAS 12 mutation assessed as inhibition of cell growth incubated for 4 to 7 days; type: functional, cell-based
NCI-H441 = assay: Antiproliferative activity against human NCI-H441 cells harboring KRAS 12 mutation assessed as inhibition of cell growth incubated for 4 to 7 days; type: functional, cell-based

Chain of GTPase HRas (P01112 whole entry): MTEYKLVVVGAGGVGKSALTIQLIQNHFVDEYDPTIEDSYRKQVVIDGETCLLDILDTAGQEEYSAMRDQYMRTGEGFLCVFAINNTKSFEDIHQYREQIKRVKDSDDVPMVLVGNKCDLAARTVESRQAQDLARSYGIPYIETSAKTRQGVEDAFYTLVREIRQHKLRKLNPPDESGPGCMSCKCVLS
Chain of Protein farnesyltransferase subunit beta (P49356 whole entry): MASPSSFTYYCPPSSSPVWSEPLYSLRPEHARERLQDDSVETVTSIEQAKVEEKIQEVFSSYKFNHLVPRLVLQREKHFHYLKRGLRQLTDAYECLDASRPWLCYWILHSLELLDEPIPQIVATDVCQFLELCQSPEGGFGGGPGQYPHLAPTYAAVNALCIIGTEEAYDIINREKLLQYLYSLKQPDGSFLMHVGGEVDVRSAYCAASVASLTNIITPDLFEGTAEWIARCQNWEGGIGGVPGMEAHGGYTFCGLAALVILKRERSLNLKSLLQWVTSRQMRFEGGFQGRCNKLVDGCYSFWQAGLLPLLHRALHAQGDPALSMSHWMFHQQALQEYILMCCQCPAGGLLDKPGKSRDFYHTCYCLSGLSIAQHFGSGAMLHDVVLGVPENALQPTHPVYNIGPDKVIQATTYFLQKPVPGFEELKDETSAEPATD
Chain of GTPase KRas (P01116 whole entry G12V): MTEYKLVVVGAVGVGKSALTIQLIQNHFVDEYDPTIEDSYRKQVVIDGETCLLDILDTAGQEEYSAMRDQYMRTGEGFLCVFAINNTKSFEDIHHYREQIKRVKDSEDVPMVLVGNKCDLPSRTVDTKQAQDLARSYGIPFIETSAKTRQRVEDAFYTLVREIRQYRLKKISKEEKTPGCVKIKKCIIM
Chain of GTPase NRas (P01111 whole entry): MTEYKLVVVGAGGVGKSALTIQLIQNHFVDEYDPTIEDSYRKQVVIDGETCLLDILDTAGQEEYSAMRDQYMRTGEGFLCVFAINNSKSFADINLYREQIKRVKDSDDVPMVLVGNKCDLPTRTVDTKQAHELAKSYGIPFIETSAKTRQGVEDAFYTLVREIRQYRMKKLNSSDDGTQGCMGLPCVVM

Compound: CC(C)C[C@H](NC(=O)c1ccc(NC[C@@H](N)CS)cc1-c1cccc2ccccc12)C(=O)O
- Activity (NIH3T3 [4]): 65%
- Activity (NIH3T3 [5]): 40%
- Activity (Calu-1): 60%

Compound: CCCc1c(OCCCCCOc2coc(CO)cc2=O)ccc(Cl)c1Cl
- IC50 (MDA-MB-231 [9]): 7000 nM
- IC50 (MIA PaCa-2): 10200 nM
- IC50 (PANC-1): 17300 nM
- IC50 (NCI-H460): 15000 nM
- IC50 (HCT-116 [10]): 8000 nM
- IC50 (SW-620): 37100 nM

Compound: COC(=O)[C@H](CCSC)CC(=O)[C@H](/C=C\[C@@H](/C=C/[C@@H](N)CS)C(C)C)Cc1ccccc1
- Activity (HT-1080): 40%
- Activity (HCT-116 [11]): 20%

Compound: NC(=O)N1CCC(CC(=O)N2CCC([C@H]3c4ncc(Br)cc4CCc4cc(Cl)cc(Br)c43)CC2)CC1 [LONAFARNIB]
- AUC [21]: 14700 ng·h/mL
- Cmax [22]: 1900 nM

Compound: CC(C)=CCC/C(C)=C/CC/C(C)=C/CSc1ccccc1C(=O)O [SALIRASIB]
- EC50 (Rat1): 7500 nM
- Activity (HT-29 [23]): 85%
- Activity [24]: 67%
- Activity [25]: 50%
- Activity [26]: 64%
- Activity [27]: 84%
- Activity (A549 [28]): 53.8%
- Activity (SK-MES-1): 0.03 cm3
- Activity (A549 [29]): 53.7%

Compound: Cn1cncc1[C@@](N)(c1ccc(Cl)cc1)c1ccc2c(c1)c(-c1cccc(Cl)c1)cc(=O)n2C [TIPIFARNIB]
- IC50 [30]: 7.9 nM
- Ki [31]: 0.5 nM
- IC50 (HT1197): 1.7 nM
- IC50 (SU.86.86): 9.5 nM
- IC50 (Capan-2): 16 nM
- IC50 (NCI-H441): 36 nM

Second part, led by results:

- IC50 [2]: 2000 nM
Compound: CSCCc1c(-c2cccnc2)nn(-c2ccc(Cl)c(Cl)c2)c1OCCCC(=O)N[C@@H](Cc1ccccc1)C(N)=O
- Ki [1]: 0.8 nM

- Ki [3]: 5.2 nM
Compound: CC(C)=CCC/C(C)=C/CC/C(C)=C/C(O)P(=O)(O)O (centres undefined)

- IC50 [6]: 1.8 nM
Compound: CC[C@@H](C)[C@@H](CO[C@@H](Cc1ccccc1)C(=O)CC(CCS(C)(=O)=O)C(=O)O)NC[C@@H](N)CS (some centres undefined)

- IC50 [7]: 900 nM
Compound: O=S(=O)(c1ccc(NO)cc1)N1CCC(=C2c3cc(Cl)ccc3CCc3cccnc32)CC1

- IC50 [8]: 500 nM
- IC50 (GTPase KRas): 25000 nM
Compound: CSCC[C@H](CC(=O)[C@H](/C=C\[C@@H](/C=C/[C@@H](N)CS)C(C)C)Cc1ccccc1)C(=O)O

- IC50 (NCI-H929): 12700 nM
- IC50 (RPMI-8226): 41600 nM
- IC50 (MDA-MB-231 [14]): 29300 nM
Compound: COC(=O)[C@H](CCSC)NC(=O)c1ccc(NC[C@H](N)CS)cc1-c1ccccc1
- IC50 [12]: 25400 nM
- IC50 (MCF-10A): 6830 nM
- IC50 [13]: 14900 nM

- Ki (GTPase NRas): 0.3 nM
- Ki (GTPase HRas): 1.6 nM
Compound: N#Cc1ccc(Cn2cncc2CN2CCN(c3cccc(Cl)c3)C(=O)C2)cc1 [L-778123 FREE BASE]
- IC50 (HT-29 [15]): 126000 nM
- IC50 [16]: 2280 nM
- IC50 [17]: 70 nM
- IC50 (A549 [18]): 101000 nM
- IC50 (A549 [19]): 1720 nM
- IC50 (HT-29 [20]): 1520 nM
